Key:
albino mice = assay: in vivo; conditions: Table 3
Experimental: (§1) The investigations on toxicity were carried out by intravenous administration to albino mice.

in vivo = conditions: mouse, in vivo, iv
Experimental: as §1

[1] = test system: β-receptors of the blood vessel system; assay: β-receptor blocking activity on the blood vessel system (blood pressure measurement in the same animal); type: in vivo, guinea pig; conditions: ratio of effective doses from Table 1, given as 1: x
Experimental: (§2) The particular β-receptor blocking activity on the heart in comparison to that on the blood vessel system was measured by the taking of an EKG or by measurement of the blood pressure in the same animal (guinea pigs) [cf. J. R. C. Baird et al., J. Pharm. Pharmac. […] For investigation of broncho-constrictor activity, the inhibition of the isoprenalin effect on the bronchial system of the guinea pig is employed [cf. H. Konzett et al., Arch. exp. Path. Pharmak.

[2] = test system: β-receptors of the bronchial system; assay: inhibition of the isoprenalin effect on the bronchial system; type: in vivo, guinea pig; conditions: for dosage relationships in comparison with the comparison compound: Table 2, versus F; for influence of heart-active doses on the bronchial system: at heart-active doses; for Heart: Bronchial System (activity relationship, heart = 1): ratio of effective doses from Table 1, given as 1: x
Experimental: as §2

Row | SMILES | toxicity and activity in comparison with E, F, and G (albino mice) | LD50 (in vivo) | Heart: Blood vessels (activity relationship, heart = 1) [1] | dosage relationships in comparison with the comparison compound [2] | influence of heart-active doses on the bronchial system [2] | Heart: Bronchial System (activity relationship, heart = 1) [2]
1 | CC(C)NCC(O)COc1cccc2c1CCN(C=O)C2 (stereo not shown) [Substance C, 2-formyl-1,2,3,4-tetrahydro-5-(2-hydroxy-3-isopropylamino-propoxy)-isoquinoline] | less toxic at higher activity | 148 mg/kg | – | – | – | –
2 | COc1cc2c(cc1OCC(O)CNC(C)C)CCN(C(C)=O)C2 (stereo not shown) [Substance B, 2-acetyl-1,2,3,4-tetrahydro-6-(2-hydroxy-3-isopropylamino-propoxy)-7-methoxy-isoquinoline] | – | – | 1.8 | essentially more favorable than for the comparison compound | does not lead to a negative influence on the bronchial system | > 7.2
3 | CC(=O)Nc1ccc(OCC(O)CNC(C)C)cc1 (stereo not shown) [Substance G, practolol, reference compound] | – | 121 mg/kg | – | – | – | –
4 | CC(C)NCC(O)COc1cccc2[nH]ccc12 (stereo not shown) [Substance E, prindolol, reference compound] | – | 22.6 mg/kg | – | – | – | –
5 | CC(C)NCC(O)COc1cccc2ccccc12 (stereo not shown) [Substance F, propranolol, reference compound] | – | – | 1 | – | – | 0.15
6 | CC(=O)N1CCc2cc(OCC(O)CNC(C)C)ccc2C1 (stereo not shown) [Substance A, 2-acetyl-1,2,3,4-tetrahydro-6-(2-hydroxy-3-isopropylamino-propoxy)-isoquinoline] | – | – | 6.2 | essentially more favorable than for the comparison compound | does not lead to a negative influence on the bronchial system | 5.5
7 | CC(C)(C)NCC(O)COc1cccc2c1CCN(C=O)C2 (stereo not shown) [Substance D, 2-formyl-1,2,3,4-tetrahydro-5-(2-hydroxy-3-tert.-butylaminopropoxy)-isoquinoline] | less toxic at higher activity | 128 mg/kg | – | – | – | –
